In patent publication US8816078B2, “Acidic gas removal by aqueous amine solvents” (Board of Regents, The University of Texas System, priority 2010, dated 2014):
One block for each compound: values may come before it.

Assays:
[1] = Cyclic CO2 capacity calculated from the regressed VLE model; assay type: physicochemical; details: for CO2 Capacity: Conc. (m): MDEA/PZ 7/2, PZ 8, MEA 7, HEP 7.7, AEP 6, 2-PE 8, AMP 4.8, EDA 12, DGA 10, PZ-MPZ 4/4, MPZ 8
[2] = Heat of CO2 absorption calculated from the VLE model; assay type: physicochemical; details: for ΔHabs@PCO2 = 1.5 kPa: Conc. (m): MDEA/PZ 7/2, PZ 8, MEA 7, HEP 7.7, AEP 6, 2-PE 8, AMP 4.8, EDA 12, DGA 10, PZ-MPZ 4/4, MPZ 8
Experimental: VLE models of CO2 partial pressure were regressed from experimental data to calculate CO2 capacity and enthalpy of CO2 absorption (ΔHabs).
Heat of absorption was calculated from the model mentioned above by applying the following thermodynamic equation: […]
Heat of absorption was calculated from the model mentioned above by applying the Gibbs-Helmholtz equation: […]
The heat absorption of CO2 at a 1.5 kPa, which is an average CO2 partial pressure for lean and rich solutions, was calculated.

[3] = Thermal degradation in sealed stainless steel cylinders at 150° C., loss of original amine over time; assay type: physicochemical; details: 8 m 1-MPZ, end of the experiment (30 weeks)
Experimental: Samples of each solution were contained in stainless steel, well-sealed cylinders and placed in a forced-convection oven for extended periods of time. The loss of the original amine is tracked over time to determine the rate of thermal degradation.
The thermal degradation of 8 m 1-MPZ at 150° C. was studied. The main degradation products are PZ, 1,4-DMPZ, formyl amides, and formate.
The thermal degradation of a blend of 4 m PZ and 4 m 1-MPZ at 150° C. was previously studied. […] Based on the results of the 8 m 1-MPZ experiment discussed above, 1,4-DMPZ was expected to be produced as a degradation product.
Solutions with varying compositions were placed in thermal cylinders at 150° C. for up to 15 weeks. At this temperature, some degradation will occur, but the conversion between PZ, 1-MPZ, and 1,4-DMPZ should be able to be observed. Three starting solutions were used: 5 m PZ+2 m 1-MPZ+1 m 1,4-DMPZ (5/2/1), 5 m PZ+2.5 m 1-MPZ+0.5 m 1,4-DMPZ (5/2.5/0.5), and 5 m PZ+1.5 m 1-MPZ+[…]. To establish the blend concentrations, it was originally hypothesized that the equilibrium concentration would be 5/2/1. Therefore, that blend, as well as two blends with increased or decreased 1-MPZ concentrations were used and the concentration of 1,4-DMPZ was adjusted to maintain a total concentration of 8 m.

[4] = CO2 solubility (CO2 partial pressure) measured in the wetted wall column; assay type: physicochemical
Description: (§1) VLE models of CO2 partial pressure were regressed from experimental data to calculate CO2 capacity and enthalpy of CO2 absorption (ΔHabs). […] MPZ and PZ-MPZ both have a slightly higher capacity than PZ. PZ-MPZ absorbs CO2 at a slightly slower rate than 8 m PZ at rich loading, about 50% faster than 7 m MEA. kg′ for MPZ is the same to 7 m MEA. Heat of CO2 absorption for PZ-MPZ (ΔHabs=70 kJ/mol) and MPZ (72 kJ/mol) is close to that for PZ (70 kJ/mol).
CO2 solubility for PZ-MPZ and MPZ are shown in FIG. 3 and FIG. 4, respectively. The filled points are experimental data at varied loadings and temperatures. Parameters for the following semi-empirical VLE equation (Equation 3) were regressed and the model was presented as solid curves in the figures. The curves fit the points satisfactorily. ln P=a+b/T+c·α+d·α/T+e·α^2 Eqn. 3
CO2 solubility for 1-MPZ and the PZ blend are shown in FIG. 11 and FIG. 12 respectively. The filled points are experimental data at varied loadings and temperatures. Parameters for the following semi-empirical VLE equation ln P=a+b/T+c·α+d·α/T+e·α^2 (Eqn. 3) were regressed and the model was presented as curves in the figures. α is the CO2 loading defined as nCO2/nalka. The curves fit the points satisfactorily.

[5] = CO2 absorption/desorption rate (liquid film mass transfer coefficient kg′) in the wetted wall column; assay type: physicochemical
Description: The CO2 absorption rate of a particular amine may be useful in determining whether an amine is desirable for acidic gas removal. In general, a greater rate of CO2 absorption will allow for the use of less packing, reduced lean loading, or greater rich loading, which in turn can reduce energy consumption. The rate of CO2 absorption can be characterized as the normalized flux, kg′ (gmol/m^2-s-Pa), measured in a model contactor such as a wetted wall column. Similarly, a greater heat of CO2 desorption will reduce the energy requirement of an absorber/stripper relying upon temperature swing regeneration.
as §1
In FIG. 5, absorption/desorption rates for PZ-MPZ at 40° C., 60° C., 80° C. and 100° C. are compared with that of 7 m MEA and 8 m PZ at 40° C.
In FIG. 13 and FIG. 14, absorption/desorption rates for 1-MPZ and the PZ blend at 40° C., 60° C., 80° C. and 100° C. are compared with that of 7 m MEA and 8 m PZ at 40° C.

[6] = Solubility and solids precipitation limits of amines in water; assay type: physicochemical
[7] = Solubility measurements of CO2 loaded PZ/1-MPZ/1,4-DMPZ blends; assay type: physicochemical
Experimental: Solubility measurements for CO2 loaded 3.9 m PZ/3.9 m 1-MPZ/0.2 m 1,4-DMPZ and 3.75 m PZ/3.75 m 1-MPZ/0.5 m 1,4-DMPZ solutions were taken to predict the solubility envelope of these blends. The solubility of the blends at varying loadings and temperatures are shown in FIG. 7 for the 3.9 m PZ/3.9 m 1-MPZ/0.2 m 1,4-DMPZ blend and in FIG. 8 for the 3.75 m PZ/3.75 m 1-MPZ/0.5 m 1,4-DMPZ blend. […] At 0° C., the 8 m blend: 3.75 m PZ/3.75 m 1-MPZ/0.5 m […] was soluble at 2° C. with a lean loading of 0.17 mol CO2/mol alkalinity, in contrast to 8 m PZ, which must be operated at loading above 0.3 to avoid solids precipitation.
A maximum CO2 loading of 0.41 and 0.39 was obtained for the 3.9 m PZ/3.9 m 1-MPZ/0.2 m 1,4-DMPZ blend and the 3.75 m PZ/3.75 m 1-MPZ/0.5 m 1,4 DMPZ blend respectively at room temperature without any solid precipitation. Intermediary loaded solutions were prepared by appropriately mixing the rich loaded and zero loaded solutions and observed at temperatures between 0° C. and the melting point of the solution.

[8] = 298K; cited from earlier work
[9] = ambient temperature; cited from earlier work

Compound: CN1CCNCC1 [1-MPZ, 1-methyl piperazine]
initial carbon not recovered in the form of the listed products [3]: 21% | PCO2 ([4]; Temp 40° C., CO2 Loading 0.10 mol/mol alka, 8 m 1-MPZ): 0.10 kPa | PCO2 ([4]; Temp 40° C., CO2 Loading 0.20 mol/mol alka, 8 m 1-MPZ): 1.32 kPa | PCO2 ([4]; Temp 40° C., CO2 Loading 0.26 mol/mol alka, 8 m 1-MPZ): 5.55 kPa | PCO2 ([4]; Temp 40° C., CO2 Loading […] alka, 8 m 1-MPZ): 0.35 kPa | PCO2 ([4]; Temp 60° C., CO2 Loading 0.10 mol/mol alka, 8 m 1-MPZ): 0.62 kPa | PCO2 ([4]; Temp 60° C., CO2 Loading 0.20 mol/mol alka, 8 m 1-MPZ): 6.41 kPa | PCO2 ([4]; Temp 60° C., CO2 Loading 0.26 mol/mol alka, 8 m 1-MPZ): 22.95 kPa | PCO2 ([4]; Temp 60° C., CO2 Loading […] alka, 8 m 1-MPZ): 2.15 kPa | PCO2 ([4]; Temp 80° C., CO2 Loading 0.10 mol/mol alka, 8 m 1-MPZ): 3.66 kPa | PCO2 ([4]; Temp 80° C., CO2 Loading 0.20 mol/mol alka, 8 m 1-MPZ): 25.30 kPa | PCO2 ([4]; Temp 80° C., CO2 Loading […] alka, 8 m 1-MPZ): 10.10 kPa | PCO2 ([4]; Temp 100° C., CO2 Loading 0.10 mol/mol alka, 8 m 1-MPZ): 12.84 kPa | PCO2 ([4]; Temp 100° C., CO2 Loading […] alka, 8 m 1-MPZ): 33.01 kPa | absorption/desorption rate compared with 8 m PZ and 7 m MEA ([5]; 0.5 kPa to 5 kPa CO2 partial pressure, comparators at 40° C.): nearly the same as 8 m PZ and much higher than 7 m MEA | cyclic CO2 capacity ([1]; difference between lean and rich CO2 loading at 500 Pa and 5,000 Pa CO2 partial pressure): 0.83 mol CO2/kg (water+amine) | heat absorption of CO2 ([2]; at 1.5 kPa CO2 partial pressure): 16 kcal/mol | miscibility with water [6]: fully miscible with water | precipitation when mixing only the amine in water [7]: no precipitation | first pKa [8]: 9.14 | second pKa [8]: 4.63

Compound: CN1CCN(C)CC1 [1,4-DMPZ, 1,4-dimethyl-piperazine]
precipitation when mixing only the amine in water [7]: no precipitation

Compound: CC(C)(N)CO [AMP]
CO2 Capacity [1]: 0.96 mol/kg (water + amine) | ΔHabs@PCO2 = 1.5 kPa [2]: 17.4 kcal/mol

Compound: CC(N)CN (stereo not shown) [1,2-diaminopropane]
solids precipitation ([6]; rich conditions, 8 m): precipitates solids

Compound: NCCN1CCNCC1 [AEP]
CO2 Capacity [1]: 0.66 mol/kg (water + amine) | ΔHabs@PCO2 = 1.5 kPa [2]: 17.2 kcal/mol

Compound: C1CNCCN1.O.O.O.O.O.O [piperazine hexahydrate]
solubility in water [9]: about 2 moles/kg H2O

Compound: CC1CNCCN1 (racemic) [2MPZ, 2-methyl piperazine]
PCO2 ([4]; Temp 40° C., CO2 Loading 0.102 mol/mol alka, 8 m MPZ): 0.01 kPa | PCO2 ([4]; Temp 40° C., CO2 Loading 0.154 mol/mol alka, 8 m MPZ): 0.04 kPa | PCO2 ([4]; Temp 40° C., CO2 Loading 0.203 mol/mol alka, 8 m MPZ): 0.12 kPa | PCO2 ([4]; Temp 40° C., CO2 Loading 0.253 mol/mol alka, 8 m MPZ): 0.32 kPa | PCO2 ([4]; Temp 40° C., CO2 Loading 0.3 mol/mol alka, 8 m MPZ): 0.96 kPa | PCO2 ([4]; Temp 40° C., CO2 Loading 0.365 mol/mol alka, 8 m MPZ): 4.73 kPa | PCO2 ([4]; Temp 60° C., CO2 Loading 0.102 mol/mol alka, 8 m MPZ): 0.09 kPa | PCO2 ([4]; Temp 60° C., CO2 Loading 0.154 mol/mol alka, 8 m MPZ): 0.29 kPa | PCO2 ([4]; Temp 60° C., CO2 Loading 0.203 mol/mol alka, 8 m MPZ): 0.86 kPa | PCO2 ([4]; Temp 60° C., CO2 Loading 0.253 mol/mol alka, 8 m MPZ): 2.26 kPa | PCO2 ([4]; Temp 60° C., CO2 Loading 0.3 mol/mol alka, 8 m MPZ): 4.87 kPa | PCO2 ([4]; Temp 60° C., CO2 Loading 0.365 mol/mol alka, 8 m MPZ): 22.41 kPa | PCO2 ([4]; Temp 80° C., CO2 Loading 0.102 mol/mol alka, 8 m MPZ): 0.59 kPa | PCO2 ([4]; Temp 80° C., CO2 Loading 0.154 mol/mol alka, 8 m MPZ): 1.80 kPa | PCO2 ([4]; Temp 80° C., CO2 Loading 0.203 mol/mol alka, 8 m MPZ): 4.06 kPa | PCO2 ([4]; Temp 80° C., CO2 Loading 0.253 mol/mol alka, 8 m MPZ): 9.72 kPa | PCO2 ([4]; Temp 80° C., CO2 Loading 0.3 mol/mol alka, 8 m MPZ): 22.06 kPa | PCO2 ([4]; Temp 100° C., CO2 Loading 0.102 mol/mol alka, 8 m MPZ): 2.68 kPa | PCO2 ([4]; Temp 100° C., CO2 Loading 0.154 mol/mol alka, 8 m MPZ): 7.39 kPa | PCO2 ([4]; Temp 100° C., CO2 Loading 0.203 mol/mol alka, 8 m MPZ): 18.65 kPa | absorption/desorption rate (kg′) compared with PZ and MEA ([5]; 0.5 kPa to 5 kPa P*CO2, comparators 7 m MEA and 8 m PZ at 40° C.): between MEA and PZ | CO2 Capacity [1]: 0.93 mol/kg (water + amine) | Heat of CO2 absorption (ΔHabs) ([2]; 8 m MPZ, 4 m PZ/4 m MPZ blend, 8 m PZ): 17.2 kcal/mol | ΔHabs@PCO2 = 1.5 kPa [2]: 17.2 kcal/mol | solubility over CO2 loading: highly soluble over the full range of CO2 loading

Compound: OCCC1CCCCN1 (stereo not shown) [2-PE]
CO2 Capacity [1]: 1.23 mol/kg (water + amine) | ΔHabs@PCO2 = 1.5 kPa [2]: 17.4 kcal/mol

Next, values leading:

CO2 Capacity [1]: 0.47 mol/kg (water + amine) | ΔHabs@PCO2 = 1.5 kPa [2]: 19.6 kcal/mol
Compound: NCCO [MEA, monoethanolamine]

CO2 Capacity [1]: 0.38 mol/kg (water + amine) | ΔHabs@PCO2 = 1.5 kPa [2]: 19.4 kcal/mol
Compound: NCCOCCO [DGA ®]

CO2 Capacity [1]: 0.68 mol/kg (water + amine) | ΔHabs@PCO2 = 1.5 kPa [2]: 16.5 kcal/mol
Compound: OCCN1CCNCC1 [HEP]
